# Experimental data as given in patent US5102891A, “1-(substituted pyridinylamino)-1H-indol-5-yl substituted carbamates” (priority 1990, dated 1992).
# Like-named read-outs stand apart in the source and are kept apart here.
# Experiments:
# [1] = molecular target: T1, Acetylcholinesterase (AChE) (Rattus norvegicus, UniProt P37136); test: biochemical; details: rat striatum homogenate, 10 min preincubation at 37° C., pH 7.2, acetylthiocholine 5 mM final; read-out: Inhibitory Concentration Brain AChE
# T1 construct: corpora striata dissected free, weighed and homogenized in 19 volumes; from tissue; host or cells: corpora striata of male Wistar rats, whole homogenate
# Protocol: Cholinesterases are found throughout the body, both in the brain and in serum. However, only brain acetylcholinesterase (AChE) distribution is correlated with central cholinergic innervation.
# The method described below was used in this invention for assaying cholinesterase activity.
# 1. 0.05M Phosphate buffer, pH 7.2
# (c) add (a) to (b) until pH reaches 7.2
# 4. A 2 mM stock solution of the test drug is made up in a suitable solvent and q.s. to volume with 0.5 mM DTNB (reagent 3). Drugs are serially diluted (1:10) such that the final concentration (in cuvette) is 10^-4 M and screened for activity. If active, IC50 values are determined from the inhibitory activity of subsequent concentrations.
# Male Wistar rats are decapitated, brains rapidly removed, corpora striata dissected free, weighed and homogenized in 19 volumes (approximately 7 mg protein/ml) of 0.05M phosphate buffer, pH 7.2 using a Potter-Elvehjem homogenizer. […]
# Enzyme activity is measured with the Beckman DU-50 spectrophotometer. […]
# Blank values are determined for each run to control for non-enzymatic hydrolysis of substrate and these values are automatically subtracted by the kindata program available on kinetics soft-pac module. This program also calculates the rate of absorbance change for each cuvette. […]
# [2] = test system: Scopolamine Induced Memory Deficit; assay type: in vivo, mice
# Protocol: In this assay mice are tested for their ability to remember an unpleasant stimulus for a period of 24 hours. A mouse is placed in a chamber that contains a dark compartment; a strong incandescent light drives it to the dark compartment, where an electric shock is administered through metal plates on the floor. The animal is removed from the testing apparatus and tested again, 24 hours later, for the ability to remember the electric shock.
# If scopolamine, an anticholinergic that is known to cause memory impairment, is administered before an animal's initial exposure to the test chamber, the animal re-enters the dark compartment shortly after being placed in the test chamber 24 hours later. This effect of scopolamine is blocked by an active test compound, resulting in a greater interval before re-entry into the dark compartment.
# The results for an active compound are expressed as the percent of a group of animals in which the effect of scopolamine is blocked, as manifested by an increased interval between being placed in the test chamber and re-entering the dark compartment.
# T1 sequence (P37136 32-614): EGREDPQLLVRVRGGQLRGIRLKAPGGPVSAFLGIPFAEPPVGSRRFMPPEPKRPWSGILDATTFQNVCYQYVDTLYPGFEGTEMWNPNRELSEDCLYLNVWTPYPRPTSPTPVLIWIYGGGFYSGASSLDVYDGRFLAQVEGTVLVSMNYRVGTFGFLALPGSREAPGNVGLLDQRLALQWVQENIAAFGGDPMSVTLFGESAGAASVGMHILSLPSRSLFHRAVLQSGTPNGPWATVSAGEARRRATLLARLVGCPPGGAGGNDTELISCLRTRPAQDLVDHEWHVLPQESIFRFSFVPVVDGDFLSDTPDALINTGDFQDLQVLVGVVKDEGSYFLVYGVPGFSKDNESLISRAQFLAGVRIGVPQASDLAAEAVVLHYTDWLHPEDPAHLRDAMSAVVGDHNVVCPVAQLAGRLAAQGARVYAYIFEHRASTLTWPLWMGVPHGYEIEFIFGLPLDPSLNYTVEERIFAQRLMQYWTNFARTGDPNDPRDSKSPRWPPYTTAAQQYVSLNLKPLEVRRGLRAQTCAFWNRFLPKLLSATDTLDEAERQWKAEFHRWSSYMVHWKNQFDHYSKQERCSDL
structure (smiles),measurement,setting,value
CCCN(c1ccncc1)n1ccc2cc(OC(=O)NC)ccc21 [1-(Propyl-4-pyridinylamino)-1H-indol-5-yl methylcarbamate],IC50,[1],0.0023 µM
same,% of Animals with Scopolamine Induced Memory Deficit Reversal,"[2]; mice, 0.35 mg/kg of body weight, s.c., retest 24 hours",21%
CCCN(c1ccncc1)n1ccc2cc(OC(=O)N[C@@H](C)c3ccccc3)ccc21 [(S)-(-)-1-(Propyl-4-pyridinylamino)-1H-indol-5-yl 1-phenylethylcarbamate],IC50,[1],30.2 µM
CC[C@@H]1C(=O)OC[C@@H]1Cc1cncn1C [Pilocarpine],% of Animals with Scopolamine Induced Memory Deficit Reversal,"[2]; mice, 5.0 mg/kg of body weight, s.c., retest 24 hours",13%
Nc1c2c(nc3ccccc13)CCCC2 [Tacrine],% of Animals with Scopolamine Induced Memory Deficit Reversal,"[2]; mouse, in vivo, sc, 0.63 mg/kg",13%
